From ChEMBL document CHEMBL4842339, “8-Hydroxyquinolin-2(1H)-one analogues as potential β2-agonists: Design, synthesis and activity study” (Eur J Med Chem, 2021) come the findings set out here.

Structures are written as SMILES. A value given as a limit tells only on which side of the number the result lay.

One may read the EC50 as the midpoint of the concentration-response curve. A word on the Emax: it is the size of the effect at its maximum, as opposed to the concentration needed.

Chain of Beta-1 adrenergic receptor (P08588 whole entry): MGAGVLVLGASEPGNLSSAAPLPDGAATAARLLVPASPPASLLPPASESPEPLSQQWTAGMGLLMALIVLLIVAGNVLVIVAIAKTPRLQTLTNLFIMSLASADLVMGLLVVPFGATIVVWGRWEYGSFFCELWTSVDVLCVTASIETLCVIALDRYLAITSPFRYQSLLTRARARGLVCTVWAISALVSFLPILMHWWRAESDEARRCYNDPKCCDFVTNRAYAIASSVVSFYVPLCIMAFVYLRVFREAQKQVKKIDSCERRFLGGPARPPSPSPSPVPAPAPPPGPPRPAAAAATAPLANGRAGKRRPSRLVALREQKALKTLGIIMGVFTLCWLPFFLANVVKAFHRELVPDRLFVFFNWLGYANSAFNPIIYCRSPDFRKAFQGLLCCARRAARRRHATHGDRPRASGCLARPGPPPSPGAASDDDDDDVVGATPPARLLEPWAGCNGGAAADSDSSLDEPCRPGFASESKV

Tested on in the first experiment: not listed separately
The experiment is described as follows: […] agonist activity at beta2 adrenergic receptor isolated from guinea pig tracheal smooth muscle assessed as inhibition of histamine-induced tracheal smooth muscle contraction. The experiment is classed as functional, Cavia porcellus.
Conditions: not given
For `COc1ccc(CCC(C)(C)NCC(O)c2ccc(O)c3[nH]c(=O)ccc23)cc1.Cl` (stereo unspecified), the pD2 came to 7.86.
Still for that read-out and setting: in the case of `Cc1ccc(CCC(C)NCC(O)c2ccc(O)c3[nH]c(=O)ccc23)cc1.Cl` (stereo unspecified) it was 7.58; in that of `COc1cccc(CCC(C)NCC(O)c2ccc(O)c3[nH]c(=O)ccc23)c1.Cl` (stereo unspecified), 7.33.
Same read-out and setting: in the case of `Cc1ccccc1CCCNCC(O)c1ccc(O)c2[nH]c(=O)ccc12.Cl` (stereo unspecified) it was 7.72.
Turning to `Cl.O=c1ccc2c(C(O)CNCCCc3ccc(F)cc3)ccc(O)c2[nH]1` (stereo unspecified), the pD2 came to 7.39.
Still for that read-out and setting: with `Cc1cccc(CCCNCC(O)c2ccc(O)c3[nH]c(=O)ccc23)c1.Cl` (stereo unspecified) the figure was 7.66; with `CC(C)(CCc1cccc(O)c1)NCC(O)c1ccc(O)c2[nH]c(=O)ccc12.Cl` (stereo unspecified), 6.37.
On the same count and under the same terms, with `COc1cc(CCCNCC(O)c2ccc(O)c3[nH]c(=O)ccc23)cc(OC)c1OC.Cl` (stereo unspecified) the figure was 7.74; with `COc1ccc(CCC(C)NCC(O)c2ccc(O)c3[nH]c(=O)ccc23)cc1.Cl` (stereo unspecified), 7.48.
As for `CC(CCc1ccccc1Cl)NCC(O)c1ccc(O)c2[nH]c(=O)ccc12.Cl` (stereo unspecified), the pD2 came out at 7.87.

The species named for the next experiment is Cavia porcellus. In words: Myorelaxant effect in guinea pig model of histamine-induced smooth muscle contraction assessed as time duration of action measured over 12 hrs. As to conditions: time hrs >12. Type of experiment: functional.
Take `COc1cccc(CCC(C)NCC(O)c2ccc(O)c3[nH]c(=O)ccc23)c1.Cl` (stereo unspecified): the Time was above 12 h.
The same measure, in the same setting: in the case of `CC(C)(CCc1cccc(Cl)c1)NCC(O)c1ccc(O)c2[nH]c(=O)ccc12.Cl` (stereo unspecified) it was above 12 h.

The next experiment addresses Beta-1 adrenergic receptor (Homo sapiens, UniProt P08588). In words: Agonist activity at human beta1 adrenoreceptor overexpressed in HEK293 cells assessed as cAMP accumulation.
Conditions: not given
Type of experiment: functional, cell-based. On the technique in general: cAMP levels reflect the balance of adenylyl cyclase and phosphodiesterase activity.
Regarding `COc1ccc(CCC(C)(C)NCC(O)c2ccc(O)c3[nH]c(=O)ccc23)cc1.Cl` (stereo unspecified), the EC50 was 7.76 nM.
Consider `CC(CCc1ccc(Cl)cc1)NCC(O)c1ccc(O)c2[nH]c(=O)ccc12` (stereo unspecified), for which the EC50 was 6.31 nM.
On the same count and under the same terms, with `Cc1ccc(CCC(C)NCC(O)c2ccc(O)c3[nH]c(=O)ccc23)cc1.Cl` (stereo unspecified) the figure was 10.5 nM; with `COc1cccc(CCC(C)NCC(O)c2ccc(O)c3[nH]c(=O)ccc23)c1.Cl` (stereo unspecified), 2.57 nM.
On the same count and under the same terms, with `CC(CCc1cccc(F)c1)NCC(O)c1ccc(O)c2[nH]c(=O)ccc12` (stereo unspecified) the figure was 3.09 nM; with `Cc1cccc(CCC(C)(C)NCC(O)c2ccc(O)c3[nH]c(=O)ccc23)c1` (stereo unspecified), 2.63 nM; with `Cc1ccccc1CCCNCC(O)c1ccc(O)c2[nH]c(=O)ccc12.Cl` (stereo unspecified), 17 nM.
`Cl.O=c1ccc2c(C(O)CNCCCc3ccc(F)cc3)ccc(O)c2[nH]1` (stereo unspecified): the half-maximal effective concentration (EC50) was 16.2 nM.
For the compound `Cc1cccc(CCC(C)NCC(O)c2ccc(O)c3[nH]c(=O)ccc23)c1` (stereo unspecified), the EC50 was 4.07 nM.
Still for that read-out and setting: with `CC(C)(CCc1ccccc1Cl)NCC(O)c1ccc(O)c2[nH]c(=O)ccc12` (stereo unspecified) the figure was 1.74 nM; with `COc1ccc(CC(C)(C)NC[C@H](O)c2cc(O)cc3c2OCC(=O)N3)cc1` [OLODATEROL], 123 nM; with `Cc1cccc(CCCNCC(O)c2ccc(O)c3[nH]c(=O)ccc23)c1.Cl` (stereo unspecified), 14.5 nM.
Turning to `COc1cc(CCC(C)NCC(O)c2ccc(O)c3[nH]c(=O)ccc23)cc(OC)c1OC` (stereo unspecified), the EC50 is 35.5 nM.
Turning to `CC(C)(CCc1cccc(O)c1)NCC(O)c1ccc(O)c2[nH]c(=O)ccc12.Cl` (stereo unspecified), the EC50 was 2.4 nM.
For the compound `COc1cc(CCCNCC(O)c2ccc(O)c3[nH]c(=O)ccc23)cc(OC)c1OC.Cl` (stereo unspecified), the EC50 is 10000 nM.
For the compound `Cc1ccc(CCC(C)(C)NCC(O)c2ccc(O)c3[nH]c(=O)ccc23)cc1` (stereo unspecified), the EC50 is 24.5 nM.
For `COc1ccc(CCC(C)NCC(O)c2ccc(O)c3[nH]c(=O)ccc23)cc1.Cl` (stereo unspecified), the EC50 was 44.7 nM.
Still for that read-out and setting: with `CC(CCc1ccccc1Cl)NCC(O)c1ccc(O)c2[nH]c(=O)ccc12.Cl` (stereo unspecified) the figure was 4.57 nM; with `COc1cccc(CCC(C)(C)NCC(O)c2ccc(O)c3[nH]c(=O)ccc23)c1` (stereo unspecified), 7.59 nM; with `Cc1ccccc1CCC(C)NCC(O)c1ccc(O)c2[nH]c(=O)ccc12` (stereo unspecified), 6.76 nM.

Tested on in a further experiment: not listed separately
The experiment is described as follows: […] agonist activity at beta2 adrenergic receptor isolated from guinea pig tracheal smooth muscle assessed as inhibition of histamine-induced tracheal smooth muscle contraction by measuring maximal relaxant effect relative to control. Type of experiment: functional. As to conditions: Cavia porcellus.
With `CC(C)NCC(O)c1ccc(O)c(O)c1` (stereo unspecified) [ISOPROTERENOL], the Emax was found to be 181%.
Turning to `COc1ccc(CCC(C)(C)NCC(O)c2ccc(O)c3[nH]c(=O)ccc23)cc1.Cl` (stereo unspecified), the Emax is 161%.
Turning to `COc1ccccc1CCC(C)(C)NCC(O)c1ccc(O)c2[nH]c(=O)ccc12` (stereo unspecified), the Emax was 141%.
The same measure, in the same setting: with `Cc1ccc(CCC(C)NCC(O)c2ccc(O)c3[nH]c(=O)ccc23)cc1.Cl` (stereo unspecified) the figure was 95.9%; with `COc1cccc(CCC(C)NCC(O)c2ccc(O)c3[nH]c(=O)ccc23)c1.Cl` (stereo unspecified), 196%; with `CC(CCc1cccc(F)c1)NCC(O)c1ccc(O)c2[nH]c(=O)ccc12` (stereo unspecified), 163%.
As for `Cc1cccc(CCC(C)(C)NCC(O)c2ccc(O)c3[nH]c(=O)ccc23)c1` (stereo unspecified), the Emax stood at 152%.
Regarding `Cc1ccccc1CCCNCC(O)c1ccc(O)c2[nH]c(=O)ccc12.Cl` (stereo unspecified), the Emax came out at 125%.
Consider `Cl.O=c1ccc2c(C(O)CNCCCc3ccc(F)cc3)ccc(O)c2[nH]1` (stereo unspecified), for which the Emax was 153%.
Still for that read-out and setting: in the case of `CC(CCc1ccc(F)cc1)NCC(O)c1ccc(O)c2[nH]c(=O)ccc12` (stereo unspecified) it was 100%; in that of `CC(C)(CCc1ccccc1Cl)NCC(O)c1ccc(O)c2[nH]c(=O)ccc12` (stereo unspecified), 124%.
Same read-out and setting: in the case of `COc1ccc(CC(C)(C)NC[C@H](O)c2cc(O)cc3c2OCC(=O)N3)cc1` [OLODATEROL] it was 170%.
Same read-out and setting: with `Cc1cccc(CCCNCC(O)c2ccc(O)c3[nH]c(=O)ccc23)c1.Cl` (stereo unspecified) the figure was 144%; with `COc1cc(CCC(C)NCC(O)c2ccc(O)c3[nH]c(=O)ccc23)cc(OC)c1OC` (stereo unspecified), 141%.
As to `CC(C)(CCc1cccc(O)c1)NCC(O)c1ccc(O)c2[nH]c(=O)ccc12.Cl` (stereo unspecified), the Emax worked out at 103%.
As for `CC(CCc1cccc(Cl)c1)NCC(O)c1ccc(O)c2[nH]c(=O)ccc12` (stereo unspecified), the maximal response (Emax) came to 105%.
Take `OCc1cc(C(O)CNCCCCCCOCCCCc2ccccc2)ccc1O` (stereo unspecified) [SALMETEROL]: the Emax came to 172%.
Same read-out and setting: in the case of `COc1cc(CCCNCC(O)c2ccc(O)c3[nH]c(=O)ccc23)cc(OC)c1OC.Cl` (stereo unspecified) it was 111%; in that of `COc1ccc(CCC(C)NCC(O)c2ccc(O)c3[nH]c(=O)ccc23)cc1.Cl` (stereo unspecified), 104%; in that of `CC(CCc1ccccc1Cl)NCC(O)c1ccc(O)c2[nH]c(=O)ccc12.Cl` (stereo unspecified), 95.3%.
Same read-out and setting: with `COc1cccc(CCC(C)(C)NCC(O)c2ccc(O)c3[nH]c(=O)ccc23)c1` (stereo unspecified) the figure was 112%; with `CC(CCc1ccc(O)cc1)NCC(O)c1ccc(O)c2[nH]c(=O)ccc12` (stereo unspecified), 71.3%.

The species entered for a further experiment is Cavia porcellus. The experiment is described as follows: Myorelaxant effect in guinea pig model of histamine-induced smooth muscle contraction assessed as time of onset of action measured over 12 hrs.
Conditions: not given
Type of experiment: functional.
`CC(C)NCC(O)c1ccc(O)c(O)c1` (stereo unspecified) [ISOPROTERENOL]: the Time is on record as 3.1 min.
Still for that read-out and setting: in the case of `COc1cccc(CCC(C)NCC(O)c2ccc(O)c3[nH]c(=O)ccc23)c1.Cl` (stereo unspecified) it was 4.97 min; in that of `CC(C)(CCc1cccc(Cl)c1)NCC(O)c1ccc(O)c2[nH]c(=O)ccc12.Cl` (stereo unspecified), 3.43 min; in that of `COc1ccc(CC(C)(C)NC[C@H](O)c2cc(O)cc3c2OCC(=O)N3)cc1` [OLODATEROL], 2.31 min.
Still for that read-out and setting: with `OCc1cc(C(O)CNCCCCCCOCCCCc2ccccc2)ccc1O` (stereo unspecified) [SALMETEROL] the figure was 4.23 min.

The target in another experiment is Beta-2 adrenergic receptor (Homo sapiens, UniProt P07550). The experiment is described as follows: Agonist activity at human beta2 adrenoreceptor overexpressed in HEK293 cells assessed as cAMP accumulation. Type of experiment: functional, cell-based.
Chain of Beta-2 adrenergic receptor (P07550 whole entry): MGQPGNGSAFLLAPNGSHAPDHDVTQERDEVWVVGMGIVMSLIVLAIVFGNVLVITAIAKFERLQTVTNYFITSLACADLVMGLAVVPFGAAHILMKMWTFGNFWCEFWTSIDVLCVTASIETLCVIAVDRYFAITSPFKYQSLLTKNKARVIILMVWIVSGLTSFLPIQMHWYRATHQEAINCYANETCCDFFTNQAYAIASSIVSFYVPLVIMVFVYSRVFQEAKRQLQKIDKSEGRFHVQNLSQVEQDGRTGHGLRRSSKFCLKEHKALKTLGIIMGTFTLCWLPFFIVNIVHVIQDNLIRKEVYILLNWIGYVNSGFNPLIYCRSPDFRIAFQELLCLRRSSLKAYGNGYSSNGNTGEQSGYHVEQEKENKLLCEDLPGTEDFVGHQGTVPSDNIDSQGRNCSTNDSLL
Conditions: not given
In the case of `COc1ccc(CCC(C)(C)NCC(O)c2ccc(O)c3[nH]c(=O)ccc23)cc1.Cl` (stereo unspecified), the EC50 was 0.0309 nM.
For `COc1ccccc1CCC(C)(C)NCC(O)c1ccc(O)c2[nH]c(=O)ccc12` (stereo unspecified), the concentration for a half-maximal effect (EC50) was 0.0224 nM.
In the case of `COc1ccccc1CCC(C)NCC(O)c1ccc(O)c2[nH]c(=O)ccc12` (stereo unspecified), the 50% effective concentration (EC50) was 0.0148 nM.
The same measure, in the same setting: in the case of `O=c1ccc2c(C(O)CNCCCc3cccc(F)c3)ccc(O)c2[nH]1` (stereo unspecified) it was 0.0245 nM.
For the compound `Cc1ccc(CCC(C)NCC(O)c2ccc(O)c3[nH]c(=O)ccc23)cc1.Cl` (stereo unspecified), the EC50 is 0.038 nM.
On the same count and under the same terms, in the case of `COc1cccc(CCC(C)NCC(O)c2ccc(O)c3[nH]c(=O)ccc23)c1.Cl` (stereo unspecified) it was 0.0214 nM; in that of `Cc1ccccc1CCCNCC(O)c1ccc(O)c2[nH]c(=O)ccc12.Cl` (stereo unspecified), 0.0575 nM.
Still for that read-out and setting: in the case of `Cl.O=c1ccc2c(C(O)CNCCCc3ccc(F)cc3)ccc(O)c2[nH]1` (stereo unspecified) it was 0.0468 nM; in that of `CC(CCc1ccc(F)cc1)NCC(O)c1ccc(O)c2[nH]c(=O)ccc12` (stereo unspecified), 0.0282 nM.
On the same count and under the same terms, in the case of `Cc1ccccc1CCC(C)(C)NCC(O)c1ccc(O)c2[nH]c(=O)ccc12` (stereo unspecified) it was 0.0178 nM.
As to `Cc1ccc(CCCNCC(O)c2ccc(O)c3[nH]c(=O)ccc23)cc1` (stereo unspecified), the EC50 is 0.0955 nM.
Still for that read-out and setting: with `Cc1cccc(CCCNCC(O)c2ccc(O)c3[nH]c(=O)ccc23)c1.Cl` (stereo unspecified) the figure was 0.038 nM; with `O=c1ccc2c(C(O)CNCCCc3cccc(C(F)(F)F)c3)ccc(O)c2[nH]1` (stereo unspecified), 0.0282 nM.
As for `COc1ccccc1CC[C@@H](C)NC[C@H](O)c1ccc(O)c2[nH]c(=O)ccc12`, the EC50 was 0.0288 nM.
The same measure, in the same setting: with `CC(C)(CCc1cccc(O)c1)NCC(O)c1ccc(O)c2[nH]c(=O)ccc12.Cl` (stereo unspecified) the figure was 0.0182 nM.
Turning to `CC(CCc1cccc(Cl)c1)NCC(O)c1ccc(O)c2[nH]c(=O)ccc12` (stereo unspecified), the EC50 was 0.0724 nM.
Same read-out and setting: in the case of `O=c1ccc2c(C(O)CNCCCc3cc(F)cc(F)c3)ccc(O)c2[nH]1` (stereo unspecified) it was 0.0214 nM.
`COc1cc(CCCNCC(O)c2ccc(O)c3[nH]c(=O)ccc23)cc(OC)c1OC.Cl` (stereo unspecified): the EC50 was 0.0832 nM.
Still for that read-out and setting: in the case of `COc1ccc(CCC(C)NCC(O)c2ccc(O)c3[nH]c(=O)ccc23)cc1.Cl` (stereo unspecified) it was 0.0182 nM; in that of `CC(CCc1cccc(O)c1)NCC(O)c1ccc(O)c2[nH]c(=O)ccc12` (stereo unspecified), 0.0135 nM; in that of `CC(CCc1ccccc1Cl)NCC(O)c1ccc(O)c2[nH]c(=O)ccc12.Cl` (stereo unspecified), 0.0339 nM.
Still for that read-out and setting: in the case of `CC(CCc1ccc(O)cc1)NCC(O)c1ccc(O)c2[nH]c(=O)ccc12` (stereo unspecified) it was 0.0107 nM.
